Experimental data as given in ChEMBL document CHEMBL1130595, “New generation dopaminergic agents. 5. Heterocyclic bioisosteres that exploit the 3-OH-N1-phenylpiperazine dopaminergic template” (Bioorg Med Chem Lett, 1998).

Legend:
D(4) dopamine receptor = biological target: T1, D(4) dopamine receptor (Homo sapiens, UniProt P21917); assay: Affinity towards human Dopamine receptor D4.4 expressed in CHO cells using [3H]spiperone; assay type: cell-based
T1 sequence (P21917 whole entry): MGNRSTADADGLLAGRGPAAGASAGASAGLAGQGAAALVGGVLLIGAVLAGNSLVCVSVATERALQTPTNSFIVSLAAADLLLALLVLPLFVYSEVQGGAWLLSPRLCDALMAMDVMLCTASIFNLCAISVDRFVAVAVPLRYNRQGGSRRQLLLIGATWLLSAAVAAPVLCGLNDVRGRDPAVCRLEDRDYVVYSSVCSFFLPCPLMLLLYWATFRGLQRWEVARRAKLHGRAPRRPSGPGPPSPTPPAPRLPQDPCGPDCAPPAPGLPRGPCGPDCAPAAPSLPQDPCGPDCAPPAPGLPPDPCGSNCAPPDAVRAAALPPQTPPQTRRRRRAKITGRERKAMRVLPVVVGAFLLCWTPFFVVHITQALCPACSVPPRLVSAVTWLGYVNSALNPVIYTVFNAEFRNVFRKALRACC

D(3) dopamine receptor = D(3) dopamine receptor (Homo sapiens, UniProt P35462); assay: Affinity towards human Dopamine receptor D3 expressed in CHO cells using [3H]spiperone; assay type: cell-based
D(2) dopamine receptor [1] = biological target: T2, D(2) dopamine receptor (Homo sapiens, UniProt P14416); assay: Affinity towards human Dopamine receptor D2 expressed in CHO cells using [3H]spiperone; assay type: cell-based
D(2) dopamine receptor [2] = biological target: T2, D(2) dopamine receptor; assay: Ratio of the affinity against D2 receptor at low antagonist state to that of D2 receptor at high agonist state; assay type: functional
D(2) dopamine receptor [3] = biological target: T3, D(2) dopamine receptor (Rattus norvegicus, UniProt P61169)
Description: Affinity of compound for the Dopamine receptor D2 in rat striatal membranes was determined for low antagonist state in rat striatal membranes using [3H]spiperone

D(2) dopamine receptor [4] = biological target: T3, D(2) dopamine receptor; remark: listed apart in the source
Description: Affinity for Dopamine receptor D2 in rat striatal membranes for high agonist state using [3H]quinpirole

D(2) dopamine receptor [5] = biological target: T3, D(2) dopamine receptor; assay: Affinity of compound for the D2 receptors in rat striatal membranes was determined for low antagonist state in rat striatal membranes using [3H]spiperone; assay type: functional, cell membranes, Membrane
D(2) dopamine receptor [6] = biological target: T3, D(2) dopamine receptor; assay: Affinity of compound for the Dopamine receptor D2 in rat striatal membranes was determined for […] in rat striatal membranes using [3H]spiperone; assay type: functional, cell membranes, Membrane

T3 sequence (P61169 whole entry): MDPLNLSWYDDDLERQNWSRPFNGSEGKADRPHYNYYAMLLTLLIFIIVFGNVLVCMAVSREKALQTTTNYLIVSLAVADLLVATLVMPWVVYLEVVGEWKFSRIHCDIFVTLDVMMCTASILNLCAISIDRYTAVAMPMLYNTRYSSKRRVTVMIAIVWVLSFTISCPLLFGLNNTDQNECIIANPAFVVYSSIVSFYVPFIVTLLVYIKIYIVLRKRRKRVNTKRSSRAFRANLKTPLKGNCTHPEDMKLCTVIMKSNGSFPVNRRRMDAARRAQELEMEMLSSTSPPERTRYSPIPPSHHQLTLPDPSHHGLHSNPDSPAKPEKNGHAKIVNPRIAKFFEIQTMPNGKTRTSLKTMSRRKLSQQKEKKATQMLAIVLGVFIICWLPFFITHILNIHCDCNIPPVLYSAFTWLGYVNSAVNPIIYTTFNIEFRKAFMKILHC
Chain of D(3) dopamine receptor (P35462 whole entry): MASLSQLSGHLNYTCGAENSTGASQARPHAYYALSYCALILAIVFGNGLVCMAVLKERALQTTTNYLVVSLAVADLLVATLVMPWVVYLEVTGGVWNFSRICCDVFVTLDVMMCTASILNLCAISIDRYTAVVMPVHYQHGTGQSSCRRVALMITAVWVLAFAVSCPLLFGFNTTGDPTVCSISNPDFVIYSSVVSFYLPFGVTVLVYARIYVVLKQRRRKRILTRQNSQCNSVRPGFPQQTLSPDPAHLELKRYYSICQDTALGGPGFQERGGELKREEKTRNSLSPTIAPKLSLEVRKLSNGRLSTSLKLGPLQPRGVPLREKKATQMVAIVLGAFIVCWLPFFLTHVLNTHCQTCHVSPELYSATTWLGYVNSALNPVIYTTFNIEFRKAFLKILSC
T2 sequence (P14416 whole entry): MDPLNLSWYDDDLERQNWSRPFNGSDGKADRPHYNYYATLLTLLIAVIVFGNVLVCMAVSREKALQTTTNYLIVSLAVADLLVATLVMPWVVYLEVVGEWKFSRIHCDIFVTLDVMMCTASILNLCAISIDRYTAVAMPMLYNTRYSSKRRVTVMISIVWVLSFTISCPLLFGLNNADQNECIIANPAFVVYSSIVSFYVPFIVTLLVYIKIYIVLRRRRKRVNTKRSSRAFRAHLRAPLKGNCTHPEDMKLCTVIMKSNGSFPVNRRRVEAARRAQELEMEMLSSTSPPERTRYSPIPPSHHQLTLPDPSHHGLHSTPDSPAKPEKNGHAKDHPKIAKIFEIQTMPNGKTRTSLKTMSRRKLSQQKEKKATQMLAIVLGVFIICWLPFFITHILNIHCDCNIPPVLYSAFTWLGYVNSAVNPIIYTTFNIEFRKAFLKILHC

Compound | Ki (D(4) dopamine receptor) [nM] | Ki (D(3) dopamine receptor) [nM] | Ki (D(2) dopamine receptor [1]) [nM] | Ratio (D(2) dopamine receptor [2]) | Ki (D(2) dopamine receptor [3]) [nM] | Ki (D(2) dopamine receptor [4]) [nM] | Ki (D(2) dopamine receptor [5]) [nM] | Ki (D(2) dopamine receptor [6]) [nM]
c1ccc(CN2CCN(c3cccc4[nH]ccc34)CC2)cc1 | 14.7 | 35.4 |  |  |  |  |  | 
c1ccc(CN2CCN(c3cccc4[nH]cnc34)CC2)cc1 | 47 | 870 | 258 | 11 | 107 | 9.7 |  | 
Brc1ccc(N2CCN(Cc3ccccc3)CC2)c2cc[nH]c12 | 2.6 | 56 | 47 | 0.5 | 12.2 | 26.8 |  | 
O=C1Cc2c(cccc2N2CCN(Cc3ccccc3)CC2)N1 | 3 | 5.4 | 8 | 14 | 8.1 | 0.56 |  | 
O=C1Cc2c(ccc(Cl)c2N2CCN(Cc3ccccc3)CC2)N1 | 8.8 | 591 | 540 | 7 | 403 | 84.8 |  | 
Clc1ccc2[nH]ccc2c1N1CCN(Cc2ccccc2)CC1 | 1.7 | 95.3 | 81.3 | 5 |  | 9.1 | 42.3 | 
FC(F)(F)c1nc2c(N3CCN(Cc4ccccc4)CC3)cccc2[nH]1 | 2.9 | 14.7 | 4.1 | 6 |  | 0.51 |  | 3.3
O=c1[nH]c2cccc(N3CCN(Cc4ccccc4)CC3)c2[nH]1 | 14.4 | 56.5 |  |  |  |  |  | 
